What all share (format): in vivo
Data set [1] relates to Alternaria solani. Description: Test B: preventive spray on tomato seedlings, tomato early blight, visual disease rating. Conditions: 200 ppm test suspension. As to the method:
General protocol for preparing test suspensions for Tests A-I: the test compounds were first dissolved in acetone in an amount equal to 3% of the final volume and then suspended at the desired concentration (in ppm) in acetone and purified water (50/50 mix by volume) containing 250 ppm of the surfactant Trem® 014 (polyhydric alcohol esters). The resulting test suspensions were then used in Tests A-I. Each test was conducted in triplicate, and the results were averaged. Spraying a 200 ppm test suspension to the point of run-off on the test plants was the equivalent of a rate of about 800 g/ha. Unless otherwise indicated, the rating values indicate a 200 ppm test suspension was used. (An asterisk “*” next to the rating value indicates a 40 ppm test suspension was used.) The test suspension was sprayed to the point of run-off on tomato seedlings. The following day the seedlings were inoculated with a spore suspension of Alternaria solani (the causal agent of tomato early blight) and incubated in a saturated atmosphere at 27° C. for 48 h, and then moved to a growth chamber at 20° C. for 5 days, after which time visual disease ratings were made. Results for Tests A-I are given in Table A. In the Table, a rating of 100 indicates 100% disease control and a rating of 0 indicates no disease control (relative to the controls). A hyphen (-) indicates no test results.

The nature of data set [2]: Single oral dose pharmacokinetics in rats, plasma and fat analysed by LC/MS (fat:plasma ratio). The conditions noted are these: single dose via oral gavage, compared to corresponding compounds with a nonhydrogen substituent at the para position of the phenyl ring connected to R^1 and R^2. The method, then:
The pharmacokinetic properties of compounds of Formula 1 can be measured using a wide variety of assay protocols known in the science of pharmacology. In one illustrative method involving a single oral dose, three male and three female rats receive a single dose of a test substance via oral gavage. Approximately 0.25 mL of blood is collected via tail vein immediately prior to dosing, and then at 0.25, 0.5, 1, 2, 4, 8, 12, 24 h and every 24 h thereafter until sacrifice. At sacrifice, fat is also collected to determine the fat:plasma ratio at sacrifice. Blood is collected into tubes that contain ethylenediaminetetracetic acid (EDTA) and centrifuged at 2500×g in order to separate plasma from blood cells. The plasma is then extracted by protein precipitation using, for example, acetonitrile and a protein precipitation plate (e.g., Strata Impact Protein Precipitation Plate, part number CEO-7565 of Phenomenex, Torrance, Calif., U.S.A.) following directions provided for the plate. Alternatively, the plasma is extracted just with acetonitrile, vortexed (i.e. mixed using a vortex mixer), and centrifuged to pellet the proteins. After removal of the proteins, the plasma is analyzed for parent compound and/or metabolites by liquid chromatography-mass spectrometry (LC/MS). The fat is homogenized and extracted by an organic solvent such as acetonitrile. The extract is then analyzed for parent compound and/or metabolites by LC/MS. The plasma pharmacokinetic data is then analyzed using nonlinear modeling software (e.g., WinNonlin™ from Pharsight, Cary, N.C., U.S.A.) to determine half-life of the administered compound in plasma, the time after administration when the maximum plasma concentration is reached (Tmax), the maximum plasma concentration (Cmax) and the area under the plasma concentration curve (AUC). As analysis of fat requires rat sacrifice, fat data is obtained at single time points (i.e. the time of rat sacrifice). However, by using multiple rats sacrificed after different intervals from time of dosing, such parameters as Cmax for fat are determined.

Data set [3] relates to Puccinia recondita f. sp. tritici. Description: Test G: curative spray on inoculated wheat seedlings, wheat leaf rust, visual disease rating. The conditions noted are these: 200 ppm test suspension. The method, then: General protocol for preparing test suspensions for Tests A-I: the test compounds were first dissolved in acetone in an amount equal to 3% of the final volume and then suspended at the desired concentration (in ppm) in acetone and purified water (50/50 mix by volume) containing 250 ppm of the surfactant Trem® 014 (polyhydric alcohol esters). The resulting test suspensions were then used in Tests A-I. Each test was conducted in triplicate, and the results were averaged. Spraying a 200 ppm test suspension to the point of run-off on the test plants was the equivalent of a rate of about 800 g/ha. Unless otherwise indicated, the rating values indicate a 200 ppm test suspension was used. (An asterisk “*” next to the rating value indicates a 40 ppm test suspension was used.) Wheat seedlings were inoculated with a spore suspension of Puccinia recondita f. sp. tritici (the causal agent of wheat leaf rust) and incubated in a saturated atmosphere at 20° C. for 24 h, and then moved to a growth chamber at 20° C. for 2 days. At the end of this time the test suspension was sprayed to the point of run-off, and then the seedlings were moved to a growth chamber at 20° C. for 4 days after which time visual disease ratings were made. […]

Data set [4] concerns Phytophthora infestans. The conditions noted are these: tomato late blight.
In data set [5] the test system is Rhizoctonia solani. Put plainly: Test D: preventive spray on creeping bent grass seedlings, turf brown patch, disease rating. The conditions noted are these: 200 ppm test suspension. The method, then: General protocol for preparing test suspensions for Tests A-I: the test compounds were first dissolved in acetone in an amount equal to 3% of the final volume and then suspended at the desired concentration (in ppm) in acetone and purified water (50/50 mix by volume) containing 250 ppm of the surfactant Trem® 014 (polyhydric alcohol esters). The resulting test suspensions were then used in Tests A-I. Each test was conducted in triplicate, and the results were averaged. Spraying a 200 ppm test suspension to the point of run-off on the test plants was the equivalent of a rate of about 800 g/ha. Unless otherwise indicated, the rating values indicate a 200 ppm test suspension was used. (An asterisk “*” next to the rating value indicates a 40 ppm test suspension was used.) The test suspension was sprayed to the point of run-off on creeping bent grass (Agrostis sp.) seedlings. The following day the seedlings were inoculated with a bran and mycelial slurry of Rhizoctonia solani (the causal agent of turf brown patch) and incubated in a saturated atmosphere at 27° C. for 48 h, and then moved to a growth chamber at 27° C. for 3 days, after which time disease ratings were made. Results for Tests A-I are given in Table A. In the Table, a rating of 100 indicates 100% disease control and a rating of 0 indicates no disease control (relative to the controls). A hyphen (-) indicates no test results.

Each structure is given as a SMILES string. Where two headings read alike, the source gives them in different places. Marks after values point to notes of the source that are not given here.

For the molecule `Cc1nn(C)c(Nc2c(F)cccc2Cl)c1-c1ccc(F)cc1Cl` [Compound 3, 4-(2-chloro-4-fluorophenyl)-N-(2-chloro-6-fluorophenyl)-1,3-dimethyl-1H-pyrazol-5-amine], the “Test B rating (% disease control)” value in data set [1] came to 100%. Also, the distribution into fat entry in data set [2] was “significantly diminished distribution into fat”. Besides, the “Test G rating (% disease control)” value in data set [3] is on record as 100%. For the same molecule, the “Test C rating (% disease control)” value in data set [4] (asterisked rating: test suspension other than 200 ppm) is reported as 0* %.
For the molecule `Cc1nn(C)c(Nc2c(F)cccc2F)c1-c1ccc(F)cc1Cl` [Compound 2, 4-(2-chloro-4-fluorophenyl)-N-(2,6-difluorophenyl)-1,3-dimethyl-1H-pyrazol-5-amine], in data set [1], the “Test B rating (% disease control)” value turned out to be 100%. Moreover, the “Test G rating (% disease control)” value in data set [3] was determined as 0%.
On to `Cc1nn(C)c(Nc2ccccc2F)c1-c1ccc(F)cc1Cl` [Compound 1, 4-(2-chloro-4-fluorophenyl)-N-(2-fluorophenyl)-1,3-dimethyl-1H-pyrazol-5-amine], for which the “Test B rating (% disease control)” value in data set [1] was determined as 93%. The “Test D rating (% disease control)” value in data set [5] amounted to 99%. Moreover, the “Test C rating (% disease control)” value in data set [4] (200 ppm test suspension, preventive spray) was determined as 0%.

The values are drawn from patent publication US10015966B2, “Fungicidal pyrazole mixtures” (E I DU PONT DE NEMOURS AND COMPANY, priority 2012, dated 2018).
